# Measurements as given in patent US20090209525A1, “ENABLING METHODS TO IDENTIFY ALLOSTERIC MODULATORS OF RECEPTOR ACTIVITY” (priority 2006, published 2009).
# Numbering of substitutions follows the chain as printed. Where two headings read alike, the source gives them in different places.
# Assays:
# [1] = biological target: T1, rat M1 wild-type receptor (RM1) (Rattus norvegicus, UniProt P08482); test: ^3H-NMS radioligand binding, wild-type; settings: for Shift: Ki divided by Ki for wild-type (reference)
# T1 construct: expressed in transfected cells
# T1 sequence (P08482 1-460): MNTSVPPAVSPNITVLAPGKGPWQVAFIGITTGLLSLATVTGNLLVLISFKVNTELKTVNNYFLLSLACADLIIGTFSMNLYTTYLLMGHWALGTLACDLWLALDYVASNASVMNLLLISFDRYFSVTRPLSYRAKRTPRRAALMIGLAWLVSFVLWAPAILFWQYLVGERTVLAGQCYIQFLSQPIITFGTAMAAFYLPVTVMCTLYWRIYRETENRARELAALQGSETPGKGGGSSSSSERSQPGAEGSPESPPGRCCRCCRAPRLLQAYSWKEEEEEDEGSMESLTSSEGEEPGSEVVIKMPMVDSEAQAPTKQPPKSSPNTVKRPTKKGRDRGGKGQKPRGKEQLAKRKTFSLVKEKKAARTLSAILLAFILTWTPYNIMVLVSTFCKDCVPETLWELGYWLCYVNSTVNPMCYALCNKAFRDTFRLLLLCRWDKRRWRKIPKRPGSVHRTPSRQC
# Protocol: Briefly, cell homogenates are prepared from cells transiently or stably expressing wild type or mutant receptors. For transiently transfected cells, HEK cells are transfected with receptor of interest and cells harvested 48 hours post transfection. Cells expressing the receptor, stably or transiently, are harvested using phosphate buffered saline containing 5 mM EDTA, cells centrifuged at low speed and pellet re-suspended in binding buffer. Cell suspension is polytroned and centrifuged at 15,000×g. The pellet is resuspended in binding buffer and centrifugation repeated two more times. The washed cell homogenates are used for the competition binding assays. Competition binding assays are carried out in the presence of fixed amount of cell homogenate, fixed concentration of radioactively labeled orthosteric or allosteric ligand and varying concentrations of the cal under study using appropriate buffer. Incubations are carried out at room temperature for 2 hours. Incubations are terminated by filtration onto GF/B filters using Packard cell harvester followed by 3 washes with ice-cold buffer. Radioactivity retained on the filters is quantitated using Packard Top Count using Microscint 20 scintillation fluid. […] The membranes prepared above are incubated with a labeled ligand in 25 mM sodium phosphate, 5 mM magnesium chloride, 0.01% BSA two hours at room temperature. The binding reaction is stopped by rapid filtration onto GF/B filters. […] The pKd values (pKd=−log Kd) of the labeled ligand are calculated.
# Radioligand binding assays were carried out in 25 mM sodium phosphate, 5 mM magnesium chloride, 0.01% BSA. Incubations were for two hours at room temperature, and reactions were stopped by rapid filtration onto GF/B filters.
# [2] = biological target: T2, rat M1 Y381A receptor (Rattus norvegicus, UniProt P08482, Y381A); test: R-SAT functional assay, Y381A mutant; format: cell-based; settings: M1 Y381A; for EC50: read-out: pEC50 (converted)
# T2 construct: expressed in transfected cells; host or cells: NIH-3T3
# T2 sequence (P08482 1-460 Y381A): T1 sequence (P08482 1-460) with Y381A
# Protocol: Cells are co-transfected for 18 h with DMEM containing 0.08 micrograms/ml of an expression vector for the expression of the mutant receptor and 0.3 micrograms/ml pSI-Bgal (Promega, Madison Wis.), and 0.5% v/v Polyfect (Qiagen, Valencia Calif.), as recommended by the manufacturer. On day three, the medium is replaced with DMEM containing 1% PSG, 0.5% calf serum, 2% cyto-sf3 (Kemp Biotechnologies, Frederick, Md.), and varying concentrations of the compounds to be tested. Cells are grown in a humidified atmosphere with 5% ambient CO2 for 5 days. The media is removed from the plates, and beta-galactosidase activity is measured by the addition of o-nitrophenyl -d-galactopyranoside in phosphate-buffered saline with 5% Nonidet P-40. […] The following equation is fitted to the data using GraphPad Prism software (San Diego, Calif.):
# NIH-3T3 cells were grown in 96-well tissue culture plates to 70 to 80% confluence in Dulbecco's modified essential media (DMEM) supplemented with 100 units/ml penicillin, 100 micrograms/ml streptomycin, 0.3 mg/ml L-glutamine (1% PSG, GIBCO) and 10% calf serum (Sigma-Aldrich). Cells were transfected for 18 h with DMEM containing 0.08 micrograms/ml receptor DNA and 0.3 micrograms/ml pSI-Bgal (Promega, Madison Wis.), 0.5% v/v Polyfect (Qiagen, Valencia Calif.). Medium was replaced with DMEM containing 1% PSG, 0.5% calf serum, 2% cyto-sf3 (Kemp Biotechnologies, Frederick, Md.), and varying concentrations of ligand. […] Cells were grown in a humidified atmosphere with 5% ambient CO2 for 5 days. Medium was removed from the plates, and beta-galactosidase activity was measured by the addition of o-nitrophenyl -d-galactopyranoside in phosphate-buffered saline with 5% Nonidet P-40.
# Receptor Selection and Amplification (R-SAT™) Assays: R-SAT™ functional assays were carried out as follows. NIH-3T3 cells were grown in 96-well tissue culture plates to 70 to 80% confluence in Dulbecco's modified essential media (DMEM) supplemented with 100 units/ml penicillin, 100 micrograms/ml streptomycin, 0.3 mg/ml L-glutamine (1% PSG, GIBCO) and 10% calf serum (Sigma-Aldrich). Cells were transfected for 18 h with DMEM containing 0.08 micrograms/ml receptor DNA and 0.3 micrograms/ml pSI-Bgal (Promega, Madison Wis.), 0.5% v/v Polyfect (Qiagen, Valencia Calif.). The transfected cells were frozen away. Cells were thawed and added to 96 well plates with DMEM containing 1% PSG, 0.5% calf serum, 2% cyto-sf3 (Kemp Biotechnologies, Frederick, Md.), and varying concentrations of ligand.
# In an effort to further characterize monoamine modulators, we used a panel of mutant muscarininc M1 receptors to analyze the activity and potency of orthosteric modulators and various allosteric modulators at those receptors.
# [3] = Table 4, maximum response relative to xanomeline
# [4] = Table 10, maximum response relative to AC-42
IC50 [1] [µM],Shift [1],"% Eff [2, 3] [%]",EC50 ([2]; Table 4) [µM],"EC50 ([2]; Table 10, NA = non-active) [µM]","% Eff [2, 4] [%]",Compound
0.158,1,95,0.158,0.158,330,"Clc1ccc2c(c1)N=C(N1CCNCC1)c1ccccc1N2 [NDMC, 8-chloro-11-(1-piperazinyl)-5H-dibenzo [b,e] [1,4] diazepine]"
1.26,1,60,0.0794,0.0631,168,"CCCCC1CCN(CCCN2C(=O)COc3cc(F)ccc32)CC1 [AC-260584, 4-[3-(4-Butyl-piperidin-1-yl)-propyl]-7-fluoro-4H-benzo [1,4]oxazin-3-one]"

Compound,IC50 [1] [µM],Shift [1],"% Eff [2, 3] [%]",EC50 ([2]; Table 4) [µM],"EC50 ([2]; Table 10, NA = non-active) [µM]","% Eff [2, 4] [%]"
"CCCCC1CCN(CCCC(=O)c2ccccc2C)CC1 [AC-42, 4-n-butyl-1-[4-(2-methylphenyl)-4-oxo-1-butyl] piperidine hydrogen chloride]",5.01,1,46,0.316,3.16,102
